The GI50 is the concentration at which growth is held to half of that of the control.

Like-named read-outs stand apart in the source and are kept apart here.

Test [1] addresses T1, HDAC7 (Homo sapiens, UniProt Q8WUI4).
T1 sequence (Q8WUI4 1-952): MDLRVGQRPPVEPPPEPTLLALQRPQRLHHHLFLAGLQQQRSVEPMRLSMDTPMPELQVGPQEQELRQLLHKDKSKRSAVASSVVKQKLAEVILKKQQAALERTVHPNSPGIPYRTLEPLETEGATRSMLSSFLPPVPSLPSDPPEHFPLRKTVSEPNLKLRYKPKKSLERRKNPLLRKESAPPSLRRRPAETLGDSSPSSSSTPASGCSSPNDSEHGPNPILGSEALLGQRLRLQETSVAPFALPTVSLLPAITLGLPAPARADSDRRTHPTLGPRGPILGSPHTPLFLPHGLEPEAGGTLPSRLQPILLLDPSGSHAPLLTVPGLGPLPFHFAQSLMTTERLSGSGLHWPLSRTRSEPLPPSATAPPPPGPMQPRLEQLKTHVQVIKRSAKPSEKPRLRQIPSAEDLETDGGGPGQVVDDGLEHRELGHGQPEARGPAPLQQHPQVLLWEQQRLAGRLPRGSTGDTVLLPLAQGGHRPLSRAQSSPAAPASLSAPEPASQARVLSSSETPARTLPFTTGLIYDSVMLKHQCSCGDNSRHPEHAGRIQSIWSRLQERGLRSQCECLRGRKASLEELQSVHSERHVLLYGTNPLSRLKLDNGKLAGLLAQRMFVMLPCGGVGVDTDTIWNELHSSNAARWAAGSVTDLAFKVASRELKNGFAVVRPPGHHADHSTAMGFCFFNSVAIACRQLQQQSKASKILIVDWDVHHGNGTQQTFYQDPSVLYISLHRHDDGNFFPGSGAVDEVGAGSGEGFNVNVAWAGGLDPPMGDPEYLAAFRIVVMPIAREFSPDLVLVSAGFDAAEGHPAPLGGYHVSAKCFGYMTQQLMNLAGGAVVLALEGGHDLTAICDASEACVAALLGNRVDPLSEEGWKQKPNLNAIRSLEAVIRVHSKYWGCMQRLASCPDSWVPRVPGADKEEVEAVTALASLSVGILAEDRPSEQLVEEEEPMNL
The test can be described thus: HDAC biochemical activity measurement (fluorescent substrate deacetylation).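 Note: fluorogenic deacetylation assay using acetyl-lysine substrate at 20 µM, enzyme and compound incubated 30 min at 37 °C, then developer added, fluorescence read at 360/460 nm.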 The settings on record: HDAC7; 37° C. 30 minutes.

Test [2] has as its system A549 (human lung cancer cells). As to the kind of experiment: MTT cancer cell growth inhibition. Particulars: MTT, 72 hours incubation, read-out: GI50 A54. The format is cell-based. In outline:
(§1)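 Using a 72 h MTT format, triplicate wells of 1500 cells received compound concentrations from 10^−5 to 10^−10 M. Formazan was read at 570 nm after DMSO dissolution, and GI50 was derived from viability.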

Test [3] concerns BGC-823 (human gastric cancer cells). The test can be described thus: MTT cancer cell growth inhibition. The settings on record: Homo sapiens, BGC-823, 72 h, MTT, 72 hours incubation, read-out: GI50 BG. The format is cell-based. In short, it runs like this:
as §1

The subject of test [4] is Bel-7402 (human hepatoma cells). The test can be described thus: MTT cancer cell growth inhibition. The format is cell-based. The settings on record: MTT, 72 hours incubation, Bel-7402 cells, read-out: GI50 Bel-7402. In outline: as §1
Test [5] has as its system DU145 (human prostate cancer cells). As to the kind of experiment: MTT cancer cell growth inhibition. Particulars: MTT, 72 hours incubation, read-out: GI50 Du1. The format is cell-based. In outline:
as §1

Test [6] concerns H1975 (non-small cell lung adenocarcinoma). The test can be described thus: MTT cancer cell growth inhibition. The format is cell-based. The settings on record: Homo sapiens, NCI-H1975, 72 h, MTT, 72 hours incubation, H1975 cells; read-out: GI50 H1975. In short, it runs like this: as §1
The subject of test [7] is HCC827 (human non-small cell lung cancer cells). The test can be described thus: MTT cancer cell growth inhibition. The format is cell-based. The settings on record: Homo sapiens, HCC827, 72 h, MTT, 72 hours incubation, HCC827 cells; read-out: GI50 HCC827. In outline:
as §1

The subject of test [8] is HT1080 (human fibrosarcoma cells). The test can be described thus: MTT cancer cell growth inhibition. The format is cell-based. Particulars: MTT, 72 hours incubation, read-out: GI50 HT1. In outline:
as §1

In test [9] the test system is Hela (human cervical cancer cells). The test can be described thus: MTT cancer cell growth inhibition. The settings on record: Homo sapiens, HeLa, 72 h, MTT, 72 hours incubation, read-out: GI50 Hela. The format is cell-based. In outline:
as §1

The subject of test [10] is Huh-7 (human hepatoma cells). The test can be described thus: MTT cancer cell growth inhibition. The format is cell-based. The settings on record: Homo sapiens, Huh-7, 72 h, MTT, 72 hours incubation, Huh-7 cells; read-out: GI50 Huh-7. In short, it runs like this: as §1
The subject of test [11] is K562 (human leukemia cells). The test can be described thus: MTT cancer cell growth inhibition. The format is cell-based. The settings on record: MTT, 72 hours incubation, K562 cells, read-out: GI50 K562. In outline:
as §1

Test [12] concerns KBM-5 (human chronic myelogenous leukemia). As to the kind of experiment: MTT cancer cell growth inhibition. The settings on record: Homo sapiens, KBM5, 72 h, MTT, 72 hours incubation, KBM-5 cells; read-out: GI50 KBM-5. The format is cell-based. In short, it runs like this:
as §1

Test [13] deals with KBM5-T315I (human chronic myelogenous leukemia). As to the kind of experiment: MTT cancer cell growth inhibition. The format is cell-based. Particulars: MTT, 72 hours incubation, KBM5-T315I cells, read-out: GI50 KBM5-T315I. In short, it runs like this: as §1
Test [14] has as its system MCF-7 (human breast cancer cells). The test can be described thus: MTT cancer cell growth inhibition. The format is cell-based. Particulars: Homo sapiens, MCF7, 72 h, 72 hours incubation, read-out: GI50 MCF. In short, it runs like this: as §1
For test [15], the system named is MDA-MB-231 (breast cancer cells). As to the kind of experiment: MTT cancer cell growth inhibition. The format is cell-based. In short, it runs like this:
as §1

The test system of test [16] is MOLT-4 (human acute lymphoblastic leukemia cells). The test can be described thus: MTT cancer cell growth inhibition. The format is cell-based. The settings on record: MTT, 72 hours incubation, read-out: GI50 Mol. In outline:
as §1

Test [17] has as its system N-87 (human gastric cancer cells). The test can be described thus: MTT cancer cell growth inhibition. The format is cell-based. The settings on record: Homo sapiens, 72 h, MTT, 72 hours incubation, N-87 cells; read-out: GI50 N-87. In outline: as §1
Test [18] deals with PANC-1 (Pac-1, human pancreatic cancer cells). The test can be described thus: MTT cancer cell growth inhibition. The format is cell-based. Particulars: Homo sapiens, PANC-1, 72 h, MTT, 72 hours incubation, read-out: GI50 PAN. In outline: as §1
For test [19], the system named is SGC-7901 (human gastric cancer cells). The test can be described thus: MTT cancer cell growth inhibition. The format is cell-based. Particulars: Homo sapiens, SGC-7901, 72 h, MTT, 72 hours incubation, SGC-7901 cells; read-out: GI50 SGC-7901. In short, it runs like this: as §1
The subject of test [20] is U937 (human leukemia cells). The test can be described thus: MTT cancer cell growth inhibition. The format is cell-based. Particulars: Homo sapiens, U-937, 72 h, MTT, 72 hours incubation, read-out: GI50 U93. In short, it runs like this:
as §1

Test [21] deals with lncap (prostate cancer cells). As to the kind of experiment: MTT cancer cell growth inhibition. The format is cell-based. Particulars: MTT, 72 hours incubation, read-out: GI50 lnca. In short, it runs like this:
as §1

The mark [22] stands for this setting: Homo sapiens, A549, 72 h, A549 cells.
Where [23] appears, read: Homo sapiens, DU-145, 72 h, DU145 cells.
[24] abbreviates: Homo sapiens, HT-1080, 72 h, HT1080 cells.
[25] abbreviates: Homo sapiens, MDA-MB-231, 72 h, read-out: GI50 MDA-MB-231, MTT, 72 hours incubation, MDA-MB-231 cells.
The mark [26] stands for this setting: Homo sapiens, MOLT-4, 72 h, MOLT-4 cells.
Where [27] appears, read: Homo sapiens, LNCaP, 72 h, lncap cells.

Consider `C/C=C1\NC(=O)c2ccc(SC)c(n2)CNC(=O)C[C@@H](/C=C/CCSC(=O)CCCCCCC)OC(=O)[C@H](C)NC1=O` [Compound 182], for which the “IC50 HDAC7” value in test [1] is reported as “no activity”. Further, the GI50 in test [2] (setting [22]) was 60 nM; in test [3] (BGC-823 cells) it was 70 nM; in [4] (Homo sapiens, Bel-7402, 72 h), 35 nM; in [5] (setting [23]), 50 nM; in [6], 39 nM; in [7], 23 nM. The GI50 came to 30 nM in [8] (setting [24]); 60 nM in test [9] (Hela cells); 35 nM in [10]; 83 nM in test [11] (Homo sapiens, K562, 72 h); 31 nM in test [12]; 41 nM in test [13] (Homo sapiens, 72 h). In addition, the GI50 in [14] (MCF-7 cells) amounted to 30 nM; in test [15] (setting [25]), 35 nM; in test [16] (setting [26]), 30 nM; in test [17], 23 nM; in [18] (PANC-1 cells) it was 90 nM; in test [19], 71 nM. The GI50 was 80 nM in [20] (U937 cells) and 100 nM in test [21] (setting [27]).
In the case of `C=C1NC(=O)c2cc(F)cc(n2)CNC(=O)C[C@@H](/C=C/CCS)OC(=O)[C@H](C(C)C)NC1=O` [Compound 132], the “IC50 HDAC7” value in test [1] is reported as “no activity”. Besides, the GI50 in test [2] was 20 nM; in test [3] it was 40 nM; in [4] it was 77 nM; in [5], 150 nM; in test [6] it was 28 nM; in [7], 52 nM. In addition, the concentration for 50% growth inhibition (GI50) stood at 30 nM in test [8]; 20 nM in [9]; 26 nM in [10]; 48 nM in [11]; 24 nM in [12]; 43 nM in test [13]. In addition, the GI50 in test [14] was found to be 100 nM; in [15] (read-out: GI50 MDA-MB-231, MTT, 72 hours incubation, MDA-MB-231 cells) it was 16 nM; in [16], 30 nM; in test [17], 57 nM; in [18] it was 70 nM; in test [19] it was 28 nM. Also, the GI50 in test [20] is 40 nM; in test [21] it was 30 nM.
Regarding `C/C=C1\NC(=O)c2ccc(SC)c(n2)CNC(=O)C[C@@H](/C=C/CCS)OC(=O)[C@H](CC)NC1=O` [Compound 231], the “IC50 HDAC7” value in test [1] is listed as “no activity”. In addition, the GI50 is 60 nM in test [2] (setting [22]); 10 nM in test [3] (BGC-823 cells); 58 nM in test [4] (Homo sapiens, Bel-7402, 72 h); 50 nM in [5] (setting [23]); 25 nM in [6]; 77 nM in [7]. Further, the GI50 in [8] (setting [24]) amounted to 30 nM; in [9] (Hela cells), 40 nM; in test [10] it was 48 nM; in [11] (Homo sapiens, K562, 72 h), 37 nM; in [12] it was 38 nM; in test [13] (Homo sapiens, 72 h), 57 nM. Besides, the GI50 in test [14] (MCF-7 cells) was 80 nM; in test [15] (setting [25]) it was 25 nM; in test [16] (setting [26]) it was 50 nM; in test [17], 36 nM; in test [18] (PANC-1 cells), 10 nM; in test [19] it was 11 nM. Besides, the results for the GI50 in [20] (U937 cells) and in test [21] (setting [27]) were 80 nM and 30 nM, respectively.
For `C/C=C1\NC(=O)c2cc(SC)cc(n2)CNC(=O)C[C@@H](/C=C/CCSC(=O)CCCCC)OC(=O)[C@H](C(C)C)NC1=O` [Compound 154], the “IC50 HDAC7” value in test [1] was “no activity”. Besides, the GI50 in test [2] (setting [22]) is 40 nM; in test [3] (BGC-823 cells) it was 40 nM; in test [4] (Homo sapiens, Bel-7402, 72 h), 53 nM; in test [5] (setting [23]), 50 nM; in test [6], 38 nM; in [7], 75 nM. Besides, the GI50 in test [8] (setting [24]) worked out at 90 nM; in [9] (Hela cells), 40 nM; in test [10], 47 nM; in [11] (Homo sapiens, K562, 72 h) it was 28 nM; in test [12] it was 29 nM; in [13] (Homo sapiens, 72 h), 71 nM. The GI50 in test [14] (MCF-7 cells) is 50 nM; in [15] (setting [25]), 53 nM; in test [16] (setting [26]), 90 nM; in test [17], 63 nM; in test [18] (PANC-1 cells), 40 nM; in [19], 12 nM. The GI50 in [20] (U937 cells) and in test [21] (setting [27]) was 40 nM throughout.

For the origin of these results see patent publication US10065990B2, “Cyclic peptide compound, and preparation method, pharmaceutical composition and use thereof” (HANGZHOU GUANYU BIO-MEDICAL CO., LTD, priority 2013, dated 2018).
